Reference: patent US11661404B2, “Prodrug compounds activated by AKR1C3 and their use for treating hyperproliferative disorders” (priority 2018, dated 2023)
Read-outs that look alike come from different tables or passages of the source.

Key:
[1] = system: wild-type SNU398 hepatocellular carcinoma cells; test: Anti-proliferative IC50 assay, wild-type SNU398; format: cell-based
Experimental: (§1) Four hundred cells were seeded in a volume of 100 μL in each well of a 96-well plate. The cells were left in a humidified incubator (37° C., 5% CO2) for 2 hours in order to enable attachment to the surface of the wells prior to compound addition. All compounds were prepared as stocks in DMSO and stored at −80° C. Frozen stocks of compounds were thawed immediately prior to addition to cells. Working solutions of each compound were made in α-MEM+5% FBS (v/v) at 3 times the required final concentration for the top well. The final concentration of DMSO in the α-MEM solution was ensured to not exceed 1% of the total volume. 50 μL of the working solution was added to the top wells (in duplicates) and gently mixed. The solubility of some compounds precluded the working solution in α-MEM to be 3 times the desired top well concentration. […] A 3-fold serial dilution was carried out along the plate starting from the top well. The first column of wells on the plate served as blanks (containing α-MEM+FBS) and the second column served as control wells (containing cells with no compound added). Following compound addition, the plates were incubated for 4 hours in a humidified incubator (37° C., 5% CO2).
(§2) Following the 4 hour compound exposure, the 96-well plates were washed three times by aspirating media with an Immuno Washer (Nunc) and each well replaced with 150 μL of α-MEM+5% (v/v) FBS+1% (v/v) P/S. The plates were left in a humidified incubator (37° C., 5% CO2) for 5 days to enable cell growth. The cells in 96-well plates were fixed 5 days after compound exposure by adding 50 μL of a 40% (w/v) trichloroacetic acid (TCA) solution so as to obtain a final TCA concentration of 10% in each well. The plates were left in the refrigerator (4° C.) for 1 hour and subsequently rinsed 3 times in tap water. Any excess water was left to drain and the cells were stained with 50 μL of 0.4% (w/v) sulforhodamine B (SRB). The plates with the SRB stain were left in the dark for 30 minutes. Excess stain was removed from the wells by rinsing the plates 4 times in water containing 1% (v/v) acetic acid. The stain was solubilised by adding 100 μL of 10 mM unbuffered Tris (pH 10.5) to each well and the plates were left in a shaker in a dark environment at room temperature for at least 1 hour. The absorbance values of the wells were determined by an ELx 808 Absorbance Microplate Reader (Bio-Tek Instruments, Winooski, Vt., USA), with the wavelength of the measurement filter set at 490 nm and a reference filter set at 450 nm. The absorbance of the reference filter was subtracted from the measurement filter to obtain a final absorbance of λ490-450 nm. The absorbance data was analysed and IC50 values determined by the KC4 microplate data analysis software (KC4™ V3.4, Bio-Tek).
(§3) Anti-proliferative IC50 assays were repeated as described above including the addition of 3 μM SN34037, a selective and potent small molecule inhibitor of AKR1C3.
(§4) Materials and methods used are as described for Example 9. […] This is a surprising finding and considerably greater than the approximately 77-fold, 270-fold and 400-fold increase in sensitivity observed for PR-104A, SN33540 and SN34454, respectively. In all cases, this increase in cytotoxicity resulting from expression of AKR1C3 can be substantially reversed by addition of an AKR1C3 inhibitor (SN34037), directly implicating metabolism of the prodrugs by AKR1C3 in the observed increase in cytotoxicity. As an important control, introduction of SN34037 had no anti-proliferative effects in wild-type SNU398 cells treated with compounds of the invention.

[2] = system: wild-type H460 lung cancer cells; test: Anti-proliferative IC50 assay, wild-type H460; format: cell-based, human
Experimental: as §1, §2, §3
Materials and methods used are as described for Example 9.

[3] = system: HCT116 colon cancer cells engineered to over-express AKR1C3; test: Anti-proliferative IC50 assay (SRB), HCT116 over-expressing AKR1C3; format: cell-based, human; details: for IC50 Ratio WT:AKR1C3: HCT116-WT vs HCT116-AKR1C3
Excerpt: (§5) The cellular cytotoxicity of compounds of the invention resulting from AKR1C3-dependent metabolism of the compounds can readily be observed in anti-proliferative IC50 testing in isogenic cell lines that have been engineered to over-express human AKR1C3, relative to their wild-type counterparts that have been selected for their comparatively low levels of endogenous AKR1C3 expression (by Western blot analysis). The direct role of AKR1C3 in metabolism and cytotoxicity of the compounds is further supported for selected examples by repeat anti-proliferative experiments in the presence of a potent and selective small molecule inhibitor of AKR1C3, SN34037 (Flanagan et al., Bioorganic & Medicinal Chemistry (2014), 22(3), 967-977).
as §1, §2, §3

[4] = system: wild-type HCT116 colon cancer cells; test: Anti-proliferative IC50 assay (SRB), wild-type HCT116; format: cell-based, human
Excerpt: as §5, §1, §2, §3

[5] = system: SNU398 hepatocellular carcinoma cells engineered to over-express AKR1C3; test: Anti-proliferative IC50 assay, SNU398 over-expressing AKR1C3; format: cell-based, human
Experimental: as §1, §2, §3, §4

recombinant human AKR1C3 = biological target: T1, recombinant human AKR1C3 (Homo sapiens, UniProt P42330); test: Kinetics assay: metabolism of prodrugs by recombinant human AKR1C3; format: biochemical; details: NADPH, pH 7.4, 37° C.
T1 construct: His6 (hexahistidine) (C); made in house; host or cells: E. coli BL21(DE3)
T1 sequence (P42330 1-323): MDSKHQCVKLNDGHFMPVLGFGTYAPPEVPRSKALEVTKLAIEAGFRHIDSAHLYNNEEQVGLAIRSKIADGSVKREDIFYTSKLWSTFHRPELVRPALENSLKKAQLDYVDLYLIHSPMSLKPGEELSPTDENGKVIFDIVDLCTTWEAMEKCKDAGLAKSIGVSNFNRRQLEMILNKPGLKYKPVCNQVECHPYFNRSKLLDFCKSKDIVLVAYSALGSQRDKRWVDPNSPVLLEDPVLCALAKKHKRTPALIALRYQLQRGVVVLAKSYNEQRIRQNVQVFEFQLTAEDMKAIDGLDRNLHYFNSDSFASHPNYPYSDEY
Experimental: E. coli BL21(DE3) cells expressing the pET22b-AKR1C3 construct with a C-terminal hexahistidine (His6) tag and constitutive promoter was generated. Colonies of these transformed E. coli cells were grown in LB agar medium containing 100 μg/mL of ampicillin. A single colony was picked the following day and grown in 400 mL batches of bacterial medium containing ampicillin (100 μg/mL) at 37° C., with continuous shaking at 200 rpm overnight. Bacterial cultures were pelleted by centrifugation (4000×g, 15 minutes) and resuspended in lysis buffer (10 mL/400 mL culture). The cells were disrupted by sonication (Sonicator 3000, Misonix) and centrifuged at 14,000 rpm for 30 minutes (at 4° C.). The cleared lysate was filtered in successive filters containing pore sizes of 1.20 μm, 0.8 μm and 0.2 μm and loaded onto a nickel-agarose affinity chromatography column on an ÄKTA Purifier system. The column was washed with 20 mL of the lysis buffer and the His6-tagged AKR1C3 protein was eluted with lysis buffer supplemented with 500 mM imidazole. The protein was further purified by a liquid chromatography gel filtration column (Superdex 200 HR16/60) using lysis buffer (supplemented with 5% v/v glycerol) and 1 mM DTT (pH 7.0) at a flow rate of 0.3 mL/min. Protein was monitored by absorbance at 280 nm, and purity of the fractions (1 mL) was assessed by SDS-PAGE. Active fractions containing the purified protein were pooled and concentrated by centrifugation (3,000×g, 4° C.) on a Vivaspin concentrator (MWCO 10,000 cutoff; GE Healthcare). The protein containing solution was supplemented with glycerol (to a final concentration of 15%, v/v) and NADP^+ was added to a final concentration of 2 mM.
Kinetic parameters of compounds of the invention were determined in a 96-well plate format. The 100 mM potassium phosphate buffer used in this assay was made with the following reagents to a pH of 7.4: • 0.5 M K2HPO4— 8.2 mL • 0.5 M KH2PO4— 1.8 mL • BSApowder—25 mg • Milli Q water—40 mL
For the assay, 2 μL of varying substrate concentrations were incubated with 94 μL of the potassium phosphate buffer and 2 μL of 5 mM NADPH for 5 minutes in the pre-warmed (37° C.) plate chamber of a Molecular Devices SpectraMax M2 plate reader. Purified AKR1C3 enzyme (2 μL) was added to a final concentration of […] in each well using an Eppendorf electronic multi-channel pipette. Absorbance measurements were recorded immediately upon addition of enzyme over a period of 5 minutes at a wavelength of 400 nm. Absorbance changes for each compound concentration were plotted against time to obtain the rate of absorbance change over the 5 minute period. The rate of absorbance change was then plotted against the compound concentration and non-linear regression analysis and Michaelis-Menten curve fitting performed on GraphPadPrism (version 5.00 for Windows, GraphPad Software, San Diego Calif. USA) in order to determine kinetic parameters of compounds.

[6] = Homo sapiens, SNU-398; read-out: SNU398-WT Anti-proliferative IC50
[7] = Homo sapiens, SNU-398; with 3 μM SN34037; read-out: SNU398-WT +AKR1C3 Inhibitor Anti-proliferative IC50
[8] = Homo sapiens, NCI-H460; read-out: H460-WT Anti-proliferative IC50
[9] = Homo sapiens, NCI-H460; with 3 μM SN34037; read-out: H460-WT +AKR1C3 Inhibitor Anti-proliferative IC50
[10] = Homo sapiens, HCT-116, 4 hour exposure, 5 days growth, read-out: HCT116-AKR1C3 IC50
[11] = with 3 μM SN34037, read-out: HCT116-AKR1C3 + AKR1C3 Inhibitor IC50
[12] = Homo sapiens, HCT-116, 4 hour exposure, 5 days growth, read-out: HCT116-WT IC50
[13] = with 3 μM SN34037, read-out: HCT116-WT + AKR1C3 Inhibitor IC50
[14] = Homo sapiens, SNU-398; read-out: SNU398-AKR1C3 Anti-proliferative IC50
[15] = Homo sapiens, SNU-398; with 3 μM SN34037; read-out: SNU398-AKR1C3 +AKR1C3 Inhibitor Anti-proliferative IC50
[16] = Homo sapiens, HCT-116, read-out: HCT116-AKR1C3 IC50
[17] = Homo sapiens, HCT-116, read-out: HCT116-WT IC50

| SMILES | IC50 [1, 6] [µM] | IC50 [1, 7] [µM] | IC50 [2, 8] [µM] | IC50 [2, 9] [µM] | IC50 Ratio WT:AKR1C3 [3] | IC50 [3, 10] [µM] | IC50 [3, 11] [µM] | IC50 [4, 12] [µM] | IC50 [4, 13] [µM] | IC50 [5, 14] [µM] | IC50 [5, 15] [µM] | IC50 [3, 16] [µM] | IC50 [4, 17] [µM] | Km (recombinant human AKR1C3) [µM] | kcat (recombinant human AKR1C3) [s⁻¹] | further results |
| --- | --- | --- | --- | --- | --- | --- | --- | --- | --- | --- | --- | --- | --- | --- | --- | --- |
| CS(=O)(=O)OCCN(CCOS(C)(=O)=O)c1ccc([N+](=O)[O-])cc1S(=O)(=O)N1CCN(CC(O)CO)CC1 (stereo not drawn) [Compound 644, ((2-((4-(2,3-dihydroxypropyl)piperazin-1-yl)sulfonyl)-4-nitrophenyl)azanediyl)bis(ethane-2,1-diyl) dimethanesulfonate] | 73.8 | 68.4 | 0.387 | 88.3 | 978 | 0.109 | 47 | 107 | 112 | 0.262 | 63.7 |  |  |  |  |  |
| O=C(c1cc([N+](=O)[O-])cc([N+](=O)[O-])c1N(CCBr)CCBr)N1CCc2ccccc2C1 [SN34947, reference compound] |  |  |  |  | 28 |  |  |  |  |  |  | 2.41 | 66.8 | 7.8 | 23.8 |  |
| CS(=O)(=O)OCCN(CCOS(C)(=O)=O)c1ccc([N+](=O)[O-])cc1S(=O)(=O)N1CCNCC1 [Compound 640, ((4-nitro-2-(piperazin-1-ylsulfonyl)phenyl)azanediyl)bis(ethane-2,1-diyl) dimethanesulfonate] | 8.47 | 8.49 | 0.027 | 5.88 | 469 | 0.009 | 2.06 | 4.22 | 4.1 | 0.026 | 6.54 |  |  |  |  |  |
| CS(=O)(=O)OCCN(CCBr)c1c(C(=O)N2CCN(c3ccccc3)CC2)cc([N+](=O)[O-])cc1[N+](=O)[O-] [SN35028, reference compound] |  |  |  |  | >36 |  |  |  |  |  |  | 4.15 | > 150 | 7.3 | 29.1 |  |
| CCN1CCN(S(=O)(=O)c2cc([N+](=O)[O-])ccc2N(CCOS(C)(=O)=O)CCOS(C)(=O)=O)CC1 [Compound 642, ((2-((4-ethylpiperazin-1-yl)sulfonyl)-4-nitrophenyl)azanediyl)bis(ethane-2,1-diyl) dimethanesulfonate] |  |  |  |  | 1930 |  |  |  |  |  |  | 0.001 | 1.93 |  |  | IC50 ([1]; Homo sapiens, SNU-398, read-out: SNU398-WT +AKR1C3 Inhibitor Anti-proliferative IC50): 12.1 µM; IC50 ([1]; Homo sapiens, SNU-398, read-out: SNU398-WT Anti-proliferative IC50): 10.3 µM; IC50 ([2]; Homo sapiens, NCI-H460, read-out: H460-WT +AKR1C3 Inhibitor Anti-proliferative IC50): 2.24 µM; IC50 ([2]; Homo sapiens, NCI-H460, read-out: H460-WT Anti-proliferative IC50): 0.001 µM; IC50 ([3]; read-out: HCT116-AKR1C3 + AKR1C3 Inhibitor IC50, with 3 μM SN34037): 0.828 µM; IC50 ([4]; read-out: HCT116-WT + AKR1C3 Inhibitor IC50, with 3 μM SN34037): 2.37 µM; IC50 ([5]; Homo sapiens, SNU-398, read-out: SNU398-AKR1C3 +AKR1C3 Inhibitor Anti-proliferative IC50): 1.28 µM; IC50 ([5]; Homo sapiens, SNU-398, read-out: SNU398-AKR1C3 Anti-proliferative IC50): 0.002 µM |
| N#Cc1cccc2c1CCN(C(=O)c1cc([N+](=O)[O-])cc([N+](=O)[O-])c1N(CCBr)CCBr)C2 [SN34951, reference compound] |  |  |  |  | >38 |  |  |  |  |  |  | 3.97 | > 150 | 8.5 | 29.0 |  |
